These results are taken from publication PMC3509132, “Global Epigenetic Changes Induced by SWI2/SNF2 Inhibitors Characterize Neomycin-Resistant Mammalian Cells” (PLoS ONE, 2012).

Read-outs that look alike come from different tables or passages of the source.

Series [1] has as its target T1, ADAAD (Bos taurus, UniProt Q9TTA5).
T1 sequence (Q9TTA5 229-940 limits assumed): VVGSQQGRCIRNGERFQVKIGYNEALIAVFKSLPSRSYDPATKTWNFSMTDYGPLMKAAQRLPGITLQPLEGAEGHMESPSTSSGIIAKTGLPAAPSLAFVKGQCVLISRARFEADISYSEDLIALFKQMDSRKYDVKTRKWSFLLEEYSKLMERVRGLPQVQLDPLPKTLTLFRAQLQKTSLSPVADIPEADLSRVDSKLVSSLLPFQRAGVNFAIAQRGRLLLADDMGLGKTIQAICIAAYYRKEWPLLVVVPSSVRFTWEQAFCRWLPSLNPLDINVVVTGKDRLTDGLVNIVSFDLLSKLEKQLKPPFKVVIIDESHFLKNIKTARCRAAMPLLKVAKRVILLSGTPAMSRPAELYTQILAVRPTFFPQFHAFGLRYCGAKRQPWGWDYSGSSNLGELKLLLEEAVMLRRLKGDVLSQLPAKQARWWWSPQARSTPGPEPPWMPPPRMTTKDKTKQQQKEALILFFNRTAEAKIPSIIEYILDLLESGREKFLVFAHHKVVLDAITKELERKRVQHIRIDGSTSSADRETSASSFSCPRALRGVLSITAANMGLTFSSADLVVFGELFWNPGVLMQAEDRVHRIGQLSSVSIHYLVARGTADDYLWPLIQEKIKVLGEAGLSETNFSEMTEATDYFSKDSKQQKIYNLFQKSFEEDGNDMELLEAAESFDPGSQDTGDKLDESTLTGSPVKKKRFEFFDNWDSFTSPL
Conditions: ADAAD alone; His-ADAAD; ref Nongkhlaw et al. (Nongkhlaw, 2009); cited from earlier work.

The target of series [2] is T1, ADAAD. The series can be described thus: Intrinsic tryptophan fluorescence quenching binding titration with His-ADAAD. As for the experimental part:
(§1) His-ADAAD, used for binding studies, was purified as described previously. For mapping and CD studies, ADAAD as well as deletion constructs were expressed as GST-fusion protein in BL21 (DE3) cells and purified as described previously. In case of deletion constructs the GST-tag was not cleaved as the resultant proteins were not stable.
(§2) Fluorescence was measured at 25°C using Cary-Varian spectrofluorimeter as described previously. Stem-loop DNA (5′- […]-3′), synthesized by Sigma-Aldrich, was used in these studies. The intrinsic fluorescence quenching data obtained with acrylamide was analyzed using Stern-Volmer plots as described previously, [14].
To understand the interaction of ADAADi with ADAAD, a member of the SWI2/SNF2 family, we synthesized ADAADi using kanamycin and neomycin. These derivatives, ADAADiK and ADAADiN respectively, were purified and titrated with protein while monitoring the quenching of the intrinsic tryptophan fluorescence. […] This binding constant was same as that in the absence of ATP and slDNA. A similar result was obtained with ADAADiK (Figure S3A and S3B; Table 1). We thus conclude that the interaction of the inhibitor with ADAAD is independent of these two ligands.

The target of series [3] is T2, MAD 33 (ADAAD deletion construct; motifs Q, I, Ia) (Bos taurus, UniProt Q9TTA5).
T2 sequence (Q9TTA5 211-507): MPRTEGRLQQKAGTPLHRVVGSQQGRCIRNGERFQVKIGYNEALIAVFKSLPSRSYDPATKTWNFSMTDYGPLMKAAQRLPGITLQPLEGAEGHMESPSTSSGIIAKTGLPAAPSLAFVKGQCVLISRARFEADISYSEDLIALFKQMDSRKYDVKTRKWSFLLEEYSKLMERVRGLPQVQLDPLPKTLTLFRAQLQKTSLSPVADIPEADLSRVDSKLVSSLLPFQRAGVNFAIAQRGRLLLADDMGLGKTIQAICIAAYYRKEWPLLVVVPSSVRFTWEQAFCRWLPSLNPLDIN
Nature of the series: Fluorescence binding titration, deletion construct MAD33. Conditions: GST fusion. As for the experimental part:
as §1, §2
(§3) ADAAD contains the conserved helicase motifs (Table 2). Three deletion constructs of ADAAD-MAD47, MAD33, and MAD53-lacking DNA-dependent ATPase activity were used to delineate the interaction region (Table 2). The Kd values for the interaction of ADAADiN with MAD47 and MAD 33 were similar to that of wild type leading to the conclusion that motifs Q, I, and Ia are sufficient for the ADAADi-ADAAD interaction. In contrast, these three motifs are not sufficient for the slDNA-ADAAD interaction (Table 2). […]

The target of series [4] is T3, MAD 53 (ADAAD deletion construct; motifs Ia, II, III, IV, V, VI) (Bos taurus, UniProt Q9TTA5).
T3 sequence (Q9TTA5 465-940): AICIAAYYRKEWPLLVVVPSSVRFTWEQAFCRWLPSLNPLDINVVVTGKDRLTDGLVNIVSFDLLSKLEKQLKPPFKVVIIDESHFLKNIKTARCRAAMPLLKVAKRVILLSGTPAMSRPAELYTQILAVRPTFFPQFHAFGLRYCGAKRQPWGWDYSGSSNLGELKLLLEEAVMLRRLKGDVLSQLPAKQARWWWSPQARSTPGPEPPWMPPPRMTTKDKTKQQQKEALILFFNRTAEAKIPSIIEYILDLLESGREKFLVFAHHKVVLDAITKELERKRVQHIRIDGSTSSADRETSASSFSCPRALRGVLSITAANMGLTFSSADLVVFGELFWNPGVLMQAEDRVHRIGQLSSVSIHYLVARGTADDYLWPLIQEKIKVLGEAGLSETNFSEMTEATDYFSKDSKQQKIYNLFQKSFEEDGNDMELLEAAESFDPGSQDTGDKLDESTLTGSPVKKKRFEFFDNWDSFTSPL
Nature of the series: Fluorescence binding titration, deletion construct MAD53. Conditions: GST fusion. As for the experimental part: as §1, §2, §3

Series [5] addresses T4, MAD 47 (ADAAD deletion construct; motifs Q, I, Ia, II, III) (Bos taurus, UniProt Q9TTA5).
T4 sequence (Q9TTA5 211-635): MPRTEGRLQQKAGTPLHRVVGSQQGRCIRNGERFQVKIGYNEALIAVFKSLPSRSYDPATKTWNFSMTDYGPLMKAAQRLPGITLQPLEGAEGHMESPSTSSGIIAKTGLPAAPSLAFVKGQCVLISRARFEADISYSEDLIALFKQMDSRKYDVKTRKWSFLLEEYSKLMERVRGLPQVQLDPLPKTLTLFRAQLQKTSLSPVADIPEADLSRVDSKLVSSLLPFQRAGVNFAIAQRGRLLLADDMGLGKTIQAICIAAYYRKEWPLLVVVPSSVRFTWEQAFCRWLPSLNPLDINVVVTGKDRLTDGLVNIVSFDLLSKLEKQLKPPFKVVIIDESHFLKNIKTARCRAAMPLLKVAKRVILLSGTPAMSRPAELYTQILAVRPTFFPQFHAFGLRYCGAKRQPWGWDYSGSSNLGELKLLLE
Nature of the series: Fluorescence binding titration, deletion construct MAD47. As for the experimental part:
as §1, §2, §3

The subject of series [6] is MAD28 (ADAAD deletion construct; motifs Q, I). Nature of the series: Fluorescence binding titration, deletion construct MAD28. Conditions: GST fusion. As for the experimental part:
as §1, §2

Series [7] has as its target T5, MAD8 (ADAAD deletion construct; motif Ia) (Bos taurus, UniProt Q9TTA5).
T5 sequence (Q9TTA5 465-535): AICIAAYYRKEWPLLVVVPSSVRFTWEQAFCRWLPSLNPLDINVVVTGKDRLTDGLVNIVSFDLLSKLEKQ
Nature of the series: Fluorescence binding titration, deletion construct MAD8. Conditions: GST fusion. As for the experimental part: as §1, §2

Broadly, the Kd is the constant that tells how readily two partners part at equilibrium. As to `Nc1ncnc2c1ncn2[C@@H]1O[C@H](COP(=O)(O)OP(=O)(O)OP(=O)(O)O)[C@@H](O)[C@H]1O` [ATP], the Kd at ADAAD [1] is 1600 nM; on ADAAD [2], 100 ± 3 nM. In addition, the “fold higher affinity than in the absence of the inhibitor” value at ADAAD [2] (in the presence of ADAADiK) and on ADAAD [2] (in the presence of ADAADiN) was 10 fold in each case.
In the case of “slDNA: Stem-loop DNA (5′- GCGCAATTGCGCTCGACGATTTTTTAGCGCAATTGCGC-3′), a well-characterized DNA effector of ADAAD (DNA, backbone and methylation of C not given here; stem-loop DNA)”, the Kd in series [3] is 41.5 nM; in series [4], 8.2 nM; in series [5], 6.5 nM; in series [6] it was 22.1 nM; in series [7], 8.7 nM; with ADAAD [1], 19.9 nM. The Kd was determined as 0.46 nM with ADAAD [2] (ADAAD + ADAADiK (2 μM ADAADiK), His-ADAAD, read-out: Kd) and 0.63 nM in the series with ADAAD [2] (ADAAD + ADAADiN (saturated with 2 μM ADAADiN), His-ADAAD, read-out: Kd).
